The subject of assay [1] is MDA-MB-231 breast cancer cell. Kind of assay: Cell death in hormone independent ER/PR negative breast cancer cell cultures. The following applies: 25 μM β-AED, 25 μM β-AET, 5 nM E2; PEG 300 with LIPOFECTAMINE vehicle. Type of assay: cell-based. The procedure: (§1) Hormone dependent, noninvasive, epithelial phenotype (ER/PR positive MCF-7 breast cancer cells) and hormone independent, invasive, mesenchymal phenotype (ER/PR negative MDA-MB-231 breast cancer cell) cell suspensions were acquired and prepared in complete medium (DMEM/F12, 10% FBS, 1% penicillin/streptomycin (Gibco)). Cellular concentration was adjusted to 2×10^5 cells/mL.
(§2) Androstene hormone solutions according to embodiments of the present invention were prepared from a first solution and a second solution. For the first solution, 3.0 mg of β-AED or 3-AET was added to warm PEG 300 to prepare 50 mM stock. For the second solution, 10 μL of LIPOFECTAMINE (3:1 DOSPA:DOPE) was introduced to 100 μL of PEG 300, mixed, and incubated in a water bath at 42° C. for 30 min. The first and second solutions were then mixed in a sonicator water bath at 42° C. for 1 hr. The final concentration was 50 mM β-AED (or AET, as used).
(§3) A β-estradiol solution was also prepared by adding 2.7 mg of β-estradiol to 200 μL warmed PEG 300 with LIPOFECTAMINE and then further diluted 1:1000 with PEG-300. The final concentration was 50 μM.
A diluted β-AED (or 3-AET) solution was prepared with complete medium at a final concentration of 50 μM (1:1000 dilute of 50 mM). Likewise, a diluted β-E2 solution was prepared with complete medium at a final concentration of 10 nM (1:5000 dilute of 50 μM). […]

Assay [2] concerns MCF-7 breast cancer cells. Put plainly: Cell death and cell growth in hormone dependent ER/PR positive breast cancer cell cultures. Type of assay: cell-based. The following applies: 5 nM E2; for MCF7 Cell Death Amount: 25 μM β-AED, 25 μM β-AET, PEG 300 with LIPOFECTAMINE vehicle. The procedure: as §1, §2, §3
A diluted β-AED (or 3-AET) solution was prepared with complete medium at a final concentration of 50 μM (1:1000 dilute of 50 mM). Likewise, a diluted β-E2 solution was prepared with complete medium at a final concentration of 10 nM (1:5000 dilute of 50 μM).
Using a 24-well plate, mixtures of 0.5 mL of cells per well with 0.5 mL of medium diluted hormone vehicle. Cell cultures were maintained at 90% humidity, 7% CO2, and 37° C.

For assay [3], the system named is 293T cells. Kind of assay: Biological function (phenotype, mobile cells) of androstene hormone treatments in 293T cells. Conditions: androstene hormone 25 μM. Type of assay: cell-based, human. As to the method: A non-toxic vehicle for administration of androstene hormones according to embodiments of the present invention was prepared from a first solution and a second solution. The first solution, comprising liposomal formulation, was placed in PEG 300 to a concentration of 5% and heated in a sonicating water bath to about 45° C. The second solution, comprising a selected hormone (one or more of 5Δ-androsten-3β, 17α-diol, 5Δ-androsten-3β, 17β-diol, or 5Δ-androsten-3β,7β,17β-triol), was placed in PEG 300 and heated in a sonicating water bath to about 45° C. The first and second solutions were then combine and stirred until dissolved.
Biological function was tested in 293T cells, which is a human embryonic cell line transformed with Large T antigen […] SV40. This hypotriploid (polyploid) cell line is particularly useful in such transformation studies and has very distinct phenotypes when grown. All androstene hormone treatment applications were at concentrations of 25 μM.

Where [4] appears, read: grown for 5 days, 25 μM androstene hormone, PEG 300 with 5% LIPOFECTAMINE

As to `C[C@]12CC[C@H]3[C@@H]([C@@H](O)C=C4C[C@@H](O)CC[C@@]43C)[C@@H]1CC[C@@H]2O` [β-AET, 5-androstene-3β,7β, 17β-triol], the “MDA-MB-231 Cell Death Amount” value in assay [1] is “Not observed”. Also, in assay [2], the “MCF7 Cell Death Amount” value is on record as “Not observed”.

For the compound `C[C@]12CC[C@H]3[C@@H](CC=C4C[C@@H](O)CC[C@@]43C)[C@@H]1CC[C@@H]2O` [β-AED, androst-5-ene-3β, 17β-diol], the “Phenotype of 293T cells (cell islands, mobile cells, cell processes)” value in assay [3] (vehicle PEG 300) was “cell islands are larger and there is a significant reduction in mobile cells”; in assay [3] (vehicle PEG 300 and LIPOFECTAMINE), “drastic decrease in, or morphological change, in mobile elements”. Besides, the “MDA-MB-231 Cell Death Amount” value in assay [1] is “Not observed”. Besides, the “MCF7 Cell Death Amount” value in assay [2] is “Not observed”. For the same compound, the “Cell growth / cell density of MCF-7 cells compared with vehicle (FIG. 14)” value in assay [2] (setting [4]) is “not as heath and there are areas of decreased density”. Further, the “Particles / cell bodies produced by MCF-7 cells in response to treatment” value in assay [2] (setting [4]) was “small particles”.

Source of the values: patent publication US20180207264A1, “PORCINE IMMUNE MODULATION MODEL” (Government of the United States as Represented by the …, priority 2017, published 2018).
